Source: DBAASP
In brackets after ≈: the same amount, converted by molar mass. Several values for one entry are separate records, joined by “and”; a condition that tells them apart may be missing. Identical values can stand only once.

Tests used:
Assay in all cases: ≥ marks a high value that may be exact or a test limit, other limits are often not marked, values filed in µg/mL are converted to µM
[1] = test system: Aspergillus brasiliensis DSM 1988
[2] = test system: Aspergillus niger PMC 7101
[3] = test system: Aspergillus terreus PMC 7201
[4] = test system: Candida albicans ATCC 10231
[5] = test system: Candida albicans ATCC 24433
[6] = test system: Candida glabrata PMC 0805
Candida krusei PMC 0610 = test system: Candida krusei PMC 0610
Candida krusei PMC 0624 = test system: Candida krusei PMC 0624
[7] = test system: Candida parapsilosis DSM 11224
[8] = test system: Candida parapsilosis PMC 0711
[9] = test system: Candida tropicalis DSM 11953
[10] = test system: Corynebacterium jeikeium ATCC BAA-949
[11] = test system: Cryptococcus neoformans DSM 11759
[12] = test system: Microsporum canis DSM 10708
[13] = test system: Trichophyton mentagrophytes DSM 4870
[14] = test system: Trichophyton mentagrophytes PMC 6528
[15] = test system: Trichophyton mentagrophytes PMC 6529
[16] = test system: Trichophyton mentagrophytes PMC 6530
[17] = test system: Candida albicans NCYC 1467
[18] = test system: Enterococcus faecalis NCTC 12697
[19] = test system: Escherichia coli NCTC 10418
[20] = test system: Klebsiella pneumoniae ATCC 43816
[21] = test system: Pseudomonas aeruginosa ATCC 27853
[22] = test system: Staphylococcus aureus NCTC 10788
[23] = test system: Staphylococcus aureus NCTC 12493
[24] = test system: Acinetobacter baumannii BCRC 14B0100
Escherichia coli BL21 = test system: Escherichia coli BL21
[25] = test system: Pseudomonas aeruginosa PAO1
[26] = test system: Staphylococcus aureus ATCC 6538P
[27] = test system: Staphylococcus aureus ATCC BAA-41
[28] = test system: Staphylococcus epidermidis
[29] = test system: Klebsiella pneumoniae E406-17
[30] = test system: Pseudomonas aeruginosa E411-17
[31] = test system: Staphylococcus aureus M838-17
Escherichia coli 078 = test system: Escherichia coli 078
Escherichia coli 987P = test system: Escherichia coli 987P
Escherichia coli K88 = test system: Escherichia coli K88
Escherichia coli K99 = test system: Escherichia coli K99
Escherichia coli UB1005 = test system: Escherichia coli UB1005
[32] = test system: Lacticaseibacillus rhamnosus 1.0385
[33] = test system: Lacticaseibacillus rhamnosus 1.0386
[34] = test system: Lacticaseibacillus rhamnosus 1.0911
[35] = test system: Lacticaseibacillus rhamnosus 1.9205
[36] = test system: Lacticaseibacillus rhamnosus 7469
[37] = test system: Lactiplantibacillus plantarum 8014
[38] = test system: Salmonella enterica subsp. enterica serovar Typhimurium C77-31
[39] = test system: Staphylococcus aureus ATCC 25923
[40] = test system: Staphylococcus aureus ATCC 29213
[41] = test system: Staphylococcus epidermidis ATCC 12228
[42] = test system: Streptococcus agalactiae ATCC 13813

## CC[C@H](C)[C@H](NC(=O)CNC(=O)[C@H](CC(N)=O)NC(=O)[C@H](CC(C)C)NC(=O)[C@@H](NC(=O)[C@H](CCCN=C(N)N)NC(=O)CNC(=O)[C@@H](NC(=O)[C@@H](NC(=O)[C@@H]1CCCN1C(=O)[C@H](Cc1ccccc1)NC(=O)[C@@H](N)Cc1ccccc1)C(C)C)[C@@H](C)CC)[C@@H](C)CC)C(=O)N[C@@H](CC(C)C)C(N)=O [FFPVIGRILNGIL]
[1]
  MIC: ≥ 128 µM
[2]
  MIC: ≥ 128 µM
[3]
  MIC: ≥ 128 µM
[4]
  MIC: 16 µM and 21.3 µM
[5]
  MIC: ≥ 32 µM
[6]
  MIC: ≥ 64 µM
Candida krusei PMC 0610
  MIC: ≥ 128 µM
Candida krusei PMC 0624
  MIC: ≥ 32 µM
[7]
  MIC: ≥ 128 µM
[8]
  MIC: ≥ 128 µM
[9]
  MIC: 16 µM (≈ 23.3 µg/mL)
[10]
  MIC: 16 µM (≈ 23.3 µg/mL)
[11]
  MIC: ≥ 32 µM
[12]
  MIC: ≥ 64 µM
[13]
  MIC: 16 µM (≈ 23.3 µg/mL)
[14]
  MIC: ≥ 32 µM
[15]
  MIC: ≥ 32 µM
[16]
  MIC: ≥ 64 µM

## CC[C@H](C)[C@@H]1NC(=O)[C@H](C)NC(=O)[C@@H](NC(=O)[C@H](Cc2ccccc2)NC(=O)[C@@H](NC(=O)[C@H](CCCCN)NC(=O)[C@H](Cc2c[nH]c3ccccc23)NC(=O)[C@@H]2CCCN2C(=O)[C@H](Cc2c[nH]c3ccccc23)NC(=O)[C@H](Cc2ccccc2)NC(=O)[C@@H](N)CCCCN)[C@@H](C)CC)CSSC[C@@H](C(=O)O)NC(=O)[C@H](CCCCN)NC(=O)[C@H](CCCCN)NC(=O)[C@H]([C@@H](C)O)NC1=O [KFWPWKIFCAITKKC]
[17]
  MIC: 8 µM (≈ 15.2 µg/mL)
[18]
  MIC: ≥ 256 µM
[19]
  MIC: 16 µM (≈ 30.4 µg/mL)
[20]
  MIC: ≥ 32 µM
[21]
  MIC: 64 µM (≈ 121 µg/mL)
[22]
  MIC: 8 µM (≈ 15.2 µg/mL)
[23]
  MIC: 8 µM (≈ 15.2 µg/mL)

## CC[C@H](C)[C@H](NC(=O)[C@H](CCCN=C(N)N)NC(=O)[C@H](CCC(N)=O)NC(=O)[C@@H](NC(=O)[C@@H](NC(=O)[C@H](CCCN=C(N)N)NC(=O)[C@H](CCCCN)NC(C)=O)[C@@H](C)CC)C(C)C)C(=O)N[C@@H](CCCCN)C(=O)N[C@@H](CC(=O)O)C(=O)N[C@@H](Cc1ccccc1)C(=O)N[C@@H](CC(C)C)C(=O)N[C@@H](CCCN=C(N)N)C(=O)N[C@@H](C)C(=O)NCC(=O)N1CCC[C@H]1C(=O)N[C@H](C(=O)N[C@@H](CCCCN)C(=O)N[C@@H](CC(=O)O)C(=O)N[C@@H](Cc1ccccc1)C(=O)N[C@@H](CC(C)C)C(=O)N[C@@H](CCCN=C(N)N)C(N)=O)[C@@H](C)CC [KRIVQRIKDFLRAGPIKDFLR]
[24]
  MIC: 0.778 µM and 0.389 µM

## CC[C@H](C)[C@H](NC(=O)[C@H](CCCCN)NC(=O)[C@H](CCCCN)NC(=O)[C@H](Cc1ccccc1)NC(=O)[C@H](CC(C)C)NC(=O)[C@H](CCCCN)NC(=O)[C@H](Cc1c[nH]c2ccccc12)NC(=O)[C@@H](N)CCCCN)C(=O)NCC(=O)N[C@@H](CCCCN)C(=O)N[C@H](C(=O)N[C@@H](CC(C)C)C(=O)N[C@@H](CCCCN)C(=O)N[C@H](C(=O)N[C@@H](CC(C)C)C(=O)O)C(C)C)C(C)C [KWKLFKKIGKVLKVL]
Escherichia coli BL21
  MIC: 0.707 µM (≈ 1.29 µg/mL)
[25]
  MIC: 1.41 µM (≈ 2.59 µg/mL)
[26]
  MIC: 1.41 µM (≈ 2.59 µg/mL)
[27]
  MIC: 4 µM (≈ 7.31 µg/mL)
[28]
  MIC: 0.5 µM (≈ 0.914 µg/mL)

## C[C@H](NC(=O)[C@H](Cc1c[nH]c2ccccc12)NC(=O)[C@H](Cc1c[nH]c2ccccc12)NC(=O)[C@H](Cc1c[nH]c2ccccc12)NC(=O)[C@H](Cc1c[nH]c2ccccc12)NC(=O)[C@H](CCCN=C(N)N)NC(=O)[C@H](CCCN=C(N)N)NC(=O)[C@@H](N)CCCN=C(N)N)C(N)=O [RRRWWWWA]
[29]
  MIC: ≥ 50 µM
[30]
  MIC: 25 µM (≈ 32.5 µg/mL)
[31]
  MIC: 12.5 µM (≈ 16.3 µg/mL)

## CC[C@H](C)[C@H](NC(=O)[C@H](CCCCN)NC(=O)[C@@H](NC(=O)[C@@H](N)Cc1c[nH]c2ccccc12)[C@@H](C)CC)C(=O)N[C@@H](Cc1c[nH]c2ccccc12)C(=O)N[C@@H](CCCCN)C(=O)N[C@@H](CCCCN)C(=O)N[C@H](C(=O)N[C@H](C(=O)N[C@@H](CCCCN)C(=O)N[C@@H](CCCCN)C(=O)N[C@@H](Cc1c[nH]c2ccccc12)C(=O)N[C@@H](CCCCN)C(=O)N[C@@H](CCCCN)C(=O)O)[C@@H](C)CC)[C@@H](C)CC [WIKIWKKIIKKWKK]
Escherichia coli 078
  MIC: 16 µM (≈ 30.8 µg/mL)
Escherichia coli 987P
  MIC: 2 µM (≈ 3.85 µg/mL)
Escherichia coli K88
  MIC: 8 µM (≈ 15.4 µg/mL)
Escherichia coli K99
  MIC: 4 µM (≈ 7.71 µg/mL)
Escherichia coli UB1005
  MIC: 8 µM (≈ 15.4 µg/mL)
[32]
  MIC: ≥ 128 µM
[33]
  MIC: ≥ 128 µM
[34]
  MIC: ≥ 128 µM
[35]
  MIC: ≥ 128 µM
[36]
  MIC: ≥ 128 µM
[37]
  MIC: ≥ 128 µM
[21]
  MIC: 4 µM (≈ 7.71 µg/mL)
[38]
  MIC: ≥ 128 µM
[39]
  MIC: 8 µM (≈ 15.4 µg/mL)
[40]
  MIC: 4 µM (≈ 7.71 µg/mL)
[41]
  MIC: 4 µM (≈ 7.71 µg/mL)
[42]
  MIC: 8 µM (≈ 15.4 µg/mL)
